We go through 1 compound from ChEMBL document CHEMBL3046219, “Inhibitive Effect of Prodigiosin on the Proliferation of Human Malignant Pancreatic Cancer Cells” (Med Chem Res, 2005).

Active and inactive are the calls of the source. No cut-off for these calls is given here.

The species named for data set [1] is Homo sapiens. In words: (§1) Cytotoxicity against Homo sapiens (human) H8898 cells assessed as reduction in cell viability after 12 hr by MTT assay. Format: functional, cell-based. On the technique in general: Tetrazolium assays rely on reduction of a dye to a coloured formazan, in cell work by metabolically active cells.
Data set [2] can be described thus: as §1. It is filed as functional, cell-based.
A short description of data set [3]: Cytotoxicity against Homo sapiens (human) H8898 cells assessed as reduction in cell viability at 50 umol after 12 hr by MTT assay. It is filed as functional.
Data set [4] can be described thus: Cytotoxicity against Homo sapiens (human) H8898 cells assessed as reduction in cell viability at 50 umol after 8 to 12 hr by MTT assay. Format: functional.
The species entered for data set [5] is Homo sapiens. The data set is described as follows: Induction of apoptosis in Homo sapiens (human) H8898 cells assessed as cell compaction at 12.5 umol after 12 hr by microscopy. Format: functional.
For data set [6], the species on record is Homo sapiens. The data set is described as follows: Cytotoxicity against Homo sapiens (human) H8898 cells assessed as reduction in cell viability at 50 umol at 12 hr by MTT assay. It is filed as functional, cell-based.
Data set [7] can be described thus: Cell cycle arrest in Homo sapiens (human) H8898 cells assessed as retardation at G1/S phase at 12 to 50 umol after 24 hr by flow cytometry. Format: functional. A general note: In flow cytometry, cells or beads pass a laser one at a time.
For data set [8], the species on record is Homo sapiens. In words: Induction of DNA fragmentation in Homo sapiens (human) H8898 cells at 50 umol after 24 hr by agarose gel electrophoresis. It is filed as functional.
The species named for data set [9] is Homo sapiens. The data set is described as follows: Induction of apoptosis in Homo sapiens (human) H8898 cells at 12.5 to 50 umol after 24 hr by FACS analysis. Format: functional.
The nature of data set [10]: Cytotoxicity against Homo sapiens (human) H8898 cells assessed as reduction in cell viability at 25 umol after 12 hr by MTT assay. It is filed as functional.
For data set [11], the species on record is Homo sapiens. The data set is described as follows: Antiproliferative activity against Homo sapiens (human) H8898 cells after 5 days using trypan blue staining by hemocytometry. Format: functional.
The species entered for data set [12] is Homo sapiens. The data set is described as follows: Cytotoxicity against Homo sapiens (human) H8898 cells assessed as reduction in cell viability at 50 umol up to 5 days by MTT assay. It is filed as functional, cell-based.
The species named for data set [13] is Homo sapiens. In words: Induction of apoptosis in Homo sapiens (human) H8898 cells assessed as cytoplasm leakage into membrane bound vesicles at 12.5 umol after 12 hr by microscopy. Format: functional.
Data set [14] in a line: Cell cycle arrest in Homo sapiens (human) H8898 cells assessed as increase in G0-G1 phase cells at 12 to 50 umol after 24 hr by flow cytometry. Format: functional, cell-based.
Data set [15] can be described thus: Cell cycle arrest in Homo sapiens (human) H8898 cells assessed as reduction in S phase cells at 12 to 50 umol after 24 hr by flow cytometry. Format: functional, cell-based.
The species entered for data set [16] is Homo sapiens. The data set is described as follows: Inhibition of clone formation in Homo sapiens (human) H8898 cells after 5 days using trypan blue staining by inverted microscopy. It is filed as functional.
For data set [17], the species on record is Homo sapiens. The data set is described as follows: Cytotoxicity against Homo sapiens (human) H8898 cells assessed as reduction in cell viability at 50 umol by MTT assay. Particulars: TDE = time-dependent effect. Format: functional, cell-based.
Data set [18] is described as follows: Drug uptake in Homo sapiens (human) H8898 cells after 24 hr by HPLC analysis. Format: ADME.
For data set [19], the species on record is Homo sapiens. The data set is described as follows: Cytotoxicity against Homo sapiens (human) H8898 cells assessed as reduction in cell viability at 50 umol after 2 days by MTT assay. Format: functional, cell-based.
The species entered for data set [20] is Homo sapiens. The data set is described as follows: Induction of DNA fragmentation in Homo sapiens (human) H8898 cells at 12.5 umol after 24 hr by agarose gel electrophoresis. Format: functional.
The species named for data set [21] is Homo sapiens. The data set is described as follows: Induction of oxidative stress in Homo sapiens (human) H8898 cells assessed as increase in intracellular ROS level after 12 hr using CDCFH-DA by spectrophotometry. Format: functional, cell-based.

In general, IC50 refers to the concentration needed to halve the response being measured. `CCCCCC1=C/C(=C/c2[nH]c(-c3ccc[nH]3)cc2OC)N=C1C` [PRODIGIOSIN]: the Activity result in [1] was “Dose-dependent effect”; in data set [3], 34%; in data set [4] it was 28%; in data set [10], 5.6%; in [17], “tde”; in data set [21], “Dose-dependent effect”. Moreover, the IC50 in data set [2] was 75 µM. For the same compound, the outcome in [5], in [6], in [7], in data set [8], in data set [9] and in data set [11] was Active. Also, the result in data set [12], in data set [13], in data set [14], in data set [15], in data set [16] and in [19] was Active. Besides, in [20], the result was Active. Moreover, the Drug uptake entry in data set [18] was “Dose-dependent effect”.
